According to patent publication US7973055B2, “Crystalline forms of a biphenyl compound” (Theravance, Inc., priority 2006, dated 2011):
Structures can show the parent of a compound that is named as a salt.

Columns and labels:
[1] = Dynamic moisture sorption (DMS) assessment; format: physicochemical; details: for weight gain when exposed to up to 90% relative humidity / level of hygroscopicity: DMS; for weight gain when exposed to up to 90% relative humidity: up to 90% RH; for deliquescence: exposed to up to 90% relative humidity
Procedure: A dynamic moisture sorption (DMS) assessment (also known as a moisture sorption-desorption profile) was performed for samples of a crystalline hemiedisylate (prepared as described in Example 2) and a heminapadisylate (prepared as described in Example 5) salt using a VTI atmospheric microbalance, SGA-100 system (VTI Corp., Hialeah, Fla. 33016). A sample size of approximately 10 mg was used and the humidity was set at the ambient value at the start of the analysis. A typical DMS analysis consisted of three scans: ambient to 2% relative humidity (RH), 2% RH to 90% RH, 90% RH to 5% RH at a scan rate of 5% RH/step. The mass was measured every two minutes and the RH was changed stepwise to the next value (+/−5% RH) when the mass of the sample was stable to within 0.02% for 5 consecutive points.

[2] = 5° C./min
Procedure: Differential scanning calorimetry (DSC) was performed using a TA Instruments Model Q-10 module with a Thermal Analyst controller. Data were collected and analyzed using TA Instruments Thermal Solutions software. A sample of about 1 mg was accurately weighed into an aluminum pan with lid. The sample was evaluated using a linear heating ramp of 5° C./min from ambient temperature to approximately 300° C. The DSC cell was purged with dry nitrogen during use.

[3] = Solid state stability assessment (HPLC); details: about 1 month at 40° C. and 75% RH
Procedure: These stock solutions were diluted to 1 mg/mL in 10% ACN for injection onto the HPLC.

[4] = 0.2 mg/mL freebase equivalents in 10 mM citrate buffered normal saline, pH 4.5; one month at 40° C./75% RH
Procedure: A solution was prepared with 0.2 mg/mL freebase equivalents (using a crystalline heminapadisylate salt prepared as described in Example 5) in 10 mM citrate buffered normal saline, pH 4.5. Less than 0.5% degradation was observed after storage for one month at 40° C./75% RH.

Row | Structure (SMILES) | weight gain when exposed to up to 90% relative humidity [1] | no thermal decomposition below (DSC trace) [2] [°C] | also measured
1 | CN(CCN1CCC(OC(=O)Nc2ccccc2-c2ccccc2)CC1)C(=O)c1cccc(C(=O)NCCNCc2ccc(O)cc2)c1 [crystalline diacetate salt] | less than 18% | – | –
2 | CN(CCN1CCC(OC(=O)Nc2ccccc2-c2ccccc2)CC1)C(=O)c1cccc(C(=O)NCCNCc2ccc(O)cc2)c1.CN(CCN1CCC(OC(=O)Nc2ccccc2-c2ccccc2)CC1)C(=O)c1cccc(C(=O)NCCNCc2ccc(O)cc2)c1.O=S(=O)(O)c1cccc2c(S(=O)(=O)O)cccc12 [crystalline heminapadisylate salt, Crystalline Heminapadisylate Salt of Biphenyl-2-ylcarbamic Acid 1-[2-({3-[2-(4-Hydroxybenzylamino)ethylcarbamoyl]benzoyl}methylamino)ethyl]piperidin-4-yl Ester] | less than 2% | ≥ 220 | weight gain in the humidity range of 40-75% RH ([1]; 40-75% RH): 0.46%; level of hygroscopicity [1]: low; deliquescence [1]: not deliquescent; chemical degradation by HPLC after storage [3]: less than 0.5%; degradation of inhalation solution after storage [4]: Less than 0.5%
3 | CN(CCN1CCC(OC(=O)Nc2ccccc2-c2ccccc2)CC1)C(=O)c1cccc(C(=O)NCCNCc2ccc(O)cc2)c1 [crystalline freebase (Form II), Crystalline Freebase Biphenyl-2-ylcarbamic Acid 1-[2-({3-[2-(4-Hydroxybenzylamino)ethylcarbamoyl]benzoyl}methylamino)ethyl]piperidin-4-yl Ester (Form II)] | – | ≥ 110 | –
4 | CN(CCN1CCC(OC(=O)Nc2ccccc2-c2ccccc2)CC1)C(=O)c1cccc(C(=O)NCCNCc2ccc(O)cc2)c1 [crystalline monooxalate salt] | less than 14% | – | –
5 | CN(CCN1CCC(OC(=O)Nc2ccccc2-c2ccccc2)CC1)C(=O)c1cccc(C(=O)NCCNCc2ccc(O)cc2)c1 [crystalline dipropionate salt] | less than 11% | – | –
6 | CN(CCN1CCC(OC(=O)Nc2ccccc2-c2ccccc2)CC1)C(=O)c1cccc(C(=O)NCCNCc2ccc(O)cc2)c1 [crystalline freebase (Form I), Crystalline Freebase Biphenyl-2-ylcarbamic Acid 1-[2-({3-[2-(4-Hydroxybenzylamino)ethylcarbamoyl]benzoyl}methylamino)ethyl]piperidin-4-yl Ester (Form I)] | – | ≥ 95 | –
7 | CN(CCN1CCC(OC(=O)Nc2ccccc2-c2ccccc2)CC1)C(=O)c1cccc(C(=O)NCCNCc2ccc(O)cc2)c1.CN(CCN1CCC(OC(=O)Nc2ccccc2-c2ccccc2)CC1)C(=O)c1cccc(C(=O)NCCNCc2ccc(O)cc2)c1.O=S(=O)(O)CCS(=O)(=O)O [crystalline hemiedisylate salt, Crystalline Hemiedisylate Salt of Biphenyl-2-ylcarbamic Acid 1-[2-({3-[2-(4-Hydroxybenzylamino)ethylcarbamoyl]benzoyl}methylamino)ethyl]piperidin-4-yl Ester] | less than 4% | ≥ 190 | level of hygroscopicity [1]: moderate and low; deliquescence [1]: not deliquescent
